Read-outs that look alike come from different tables or passages of the source.

One assay has as its target canine NPC1L1 (Canis lupus familiaris, UniProt A0MJA4). Description: Fluorescence NPC1L1 binding assay, HEK-293 cells, BODIPY-labeled compound 1. The procedure:
(§1) Cell Culture and Membrane Preparation. Each plasmid pCR3.1 harboring NPC1L1 was prepared using standard molecular biology protocols. Stable cell lines expressing human, rhesus monkey, mouse, rat, hamster, canine or rabbit NPC1L1 were generated using Lipofectamine 2000 transfection reagent in HEK-293 cells according to the manufacturer's protocol. Cells were maintained in DMEM supplemented with 10% FBS, 100 U/ml pen/strep, and 500 μg/ml geneticin at 37° C., 5% CO2. All cell culture reagents were obtained from Invitrogen Life Technologies, (Carlsbad, Calif.). Cell membranes were prepared by lysing cells in 5 mM HEPES with protease inhibitors (Complete™ Protease Inhibitor Cocktail Tablets; Roche Diagnostics Corp., Indianapolis Ind.) for 15 min at 4° C. A membrane pellet was obtained by centrifuging the cell lysates at 12,000×g for 25 min. The membranes were resuspended in 5 mM HEPES with protease inhibitors and triturated with a 21G needle.
(§2) Fluorescence. Cells were plated into 384-well black/clear plates (BD Biosciences, Bedford Mass.) for binding experiments the following day. The media was aspirated. […] Media (20 μl) containing the indicated concentration of compound was then added to the wells. […] The binding reaction was allowed to proceed for 4 hours at 37° C. Subsequently the media was aspirated and the cells washed once with PBS.

For another assay, the target named is hamster NPC1L1 (Mesocricetus auratus, UniProt A0MJA8). Described as above. The procedure:
as §1, §2

In a further assay the target is T1, human NPC1L1 (Homo sapiens, UniProt Q9UHC9, T1073A).
T1 construct: expressed in transfected cells
T1 sequence (Q9UHC9 22-1332 isoform Q9UHC9-2 T1046A): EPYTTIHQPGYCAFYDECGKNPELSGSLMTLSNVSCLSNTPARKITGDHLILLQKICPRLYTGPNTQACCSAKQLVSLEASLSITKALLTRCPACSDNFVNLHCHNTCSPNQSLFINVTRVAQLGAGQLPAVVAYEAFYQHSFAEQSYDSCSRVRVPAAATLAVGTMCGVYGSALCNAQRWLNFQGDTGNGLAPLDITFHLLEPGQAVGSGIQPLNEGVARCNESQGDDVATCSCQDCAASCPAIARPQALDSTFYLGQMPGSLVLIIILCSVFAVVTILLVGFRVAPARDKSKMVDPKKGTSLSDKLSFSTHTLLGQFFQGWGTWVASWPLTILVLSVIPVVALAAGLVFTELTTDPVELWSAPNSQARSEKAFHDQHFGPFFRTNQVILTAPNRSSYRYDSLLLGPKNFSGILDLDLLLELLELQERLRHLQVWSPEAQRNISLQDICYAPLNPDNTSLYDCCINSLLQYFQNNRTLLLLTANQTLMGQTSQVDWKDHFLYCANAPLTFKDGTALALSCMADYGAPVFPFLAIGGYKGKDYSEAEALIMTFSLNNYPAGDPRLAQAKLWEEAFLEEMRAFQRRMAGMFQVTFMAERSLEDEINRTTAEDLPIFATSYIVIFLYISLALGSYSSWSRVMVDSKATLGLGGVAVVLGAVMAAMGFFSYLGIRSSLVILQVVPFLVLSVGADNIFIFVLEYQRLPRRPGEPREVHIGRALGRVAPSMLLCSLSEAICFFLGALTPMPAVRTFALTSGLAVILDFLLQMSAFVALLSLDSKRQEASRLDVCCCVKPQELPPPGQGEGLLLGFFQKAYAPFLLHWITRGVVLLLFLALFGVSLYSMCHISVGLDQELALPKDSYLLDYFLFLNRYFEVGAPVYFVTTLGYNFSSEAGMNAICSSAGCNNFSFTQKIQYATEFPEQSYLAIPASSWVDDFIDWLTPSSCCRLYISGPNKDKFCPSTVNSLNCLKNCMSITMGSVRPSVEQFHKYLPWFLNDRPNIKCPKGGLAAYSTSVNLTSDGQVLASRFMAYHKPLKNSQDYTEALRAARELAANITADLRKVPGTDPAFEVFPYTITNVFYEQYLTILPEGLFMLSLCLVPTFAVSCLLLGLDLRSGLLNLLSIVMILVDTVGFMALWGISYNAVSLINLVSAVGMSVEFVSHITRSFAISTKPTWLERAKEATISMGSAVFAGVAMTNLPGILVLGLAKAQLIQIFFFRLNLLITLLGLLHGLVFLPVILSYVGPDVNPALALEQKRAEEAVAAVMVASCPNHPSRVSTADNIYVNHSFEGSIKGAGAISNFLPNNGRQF
The description is as above. The conditions noted are these: Human NPC1L1, competition with compound 1; read-out: Ki. The procedure: as §1, §2

Another assay concerns the target rabbit NPC1L1 (Oryctolagus cuniculus, UniProt A0MJA7). The description is as above. The procedure:
as §1, §2

The next assay has as its target T2, rat NPC1L1 (Rattus norvegicus, UniProt Q6T3U3, A349V/E317P/G318E/K324N/L297S).
T2 construct: expressed in transfected cells
Described as above. The conditions noted are these: Rat NPC1L1, competition with compound 1; read-out: Ki. The procedure: as §1, §2

The next assay concerns the target T3, mouse NPC1L1 (Mus musculus, UniProt Q6T3U4, N476K).
T3 construct: expressed in transfected cells
The assay is described as follows: Fluorescence NPC1L1 binding assay, HEK-293 cells, fluorescent compound 2 as ligand. The procedure:
as §1, §2
In an effort to show binding to mouse NPC1L1, several related ezetimibe analogs were examined as possible alternatives to fluorescently-labeled (BODIPY) ezetimibe glucuronide (compound 1) in the binding assay. Compound 2, which is a fluorescently labeled synthetic precursor for fluorescently-labeled (BODIPY) ezetimibe glucuronide (compound 1; Burnett et al., Bioorganic and Medicinal Chemistry Letters 12:315-318 (2002)), was identified as a viable option for detection of mouse NPC1L1 binding. Compound 2 contains a methyl ester substitution for the carboxylic acid on the glucuronide portion of the molecule (compound structures shown in FIG. 4A).

What is called Ki is a measure of affinity in units of concentration, obtained from inhibition or displacement. With `O=C(O)[C@H]1O[C@@H](Oc2ccc([C@@H]3[C@@H](CC[C@H](O)c4ccc(F)cc4)C(=O)N3c3ccc(F)cc3)cc2)[C@H](O)[C@@H](O)[C@@H]1O` [compound 4, glucuronidated ezetimibe], the Ki came to 192 nM on canine NPC1L1 (Canine NPC1L1, competition with compound 1, read-out: Ki); 190 nM on canine NPC1L1 (Table 3, Dog, read-out: Ki Dog NPC1L1); 370 nM on hamster NPC1L1 (Hamster NPC1L1, competition with compound 1, read-out: Ki); 371 nM at hamster NPC1L1 (Table 3, Hamster, read-out: Ki Hamster NPC1L1); 660 nM on human NPC1L1; 830 nM at rabbit NPC1L1 (Rabbit NPC1L1, competition with compound 1, read-out: Ki). Further, the Ki at rabbit NPC1L1 (Table 3, Rabbit, read-out: Ki Rabbit NPC1L1) came out at 830 nM; at rat NPC1L1, 352 nM; on mouse NPC1L1 (Mouse NPC1L1, competition with compound 2, read-out: Ki), 9000 nM; at mouse NPC1L1 (Table 3, Mouse, read-out: Ki Mouse NPC1L1), 5400 nM. Besides, the “difference in affinity versus ezetimibe (compound 3)” value at rabbit NPC1L1 (rabbit NPC1L1) was “less than 3 fold”.
